Measurements from article PMC4864240, “Biotype Characterization, Developmental Profiling, Insecticide Response and Binding Property of Bemisia tabaci Chemosensory Proteins: Role of CSP in Insect Defense” (PLoS ONE, 2016).
Where two headings read alike, the source gives them in different places.

Experiments:
Test in all cases: biochemical
Assay type in all cases: binding
BtabCSP1 = target: T1, BtabCSP1 (Bemisia tabaci, UniProt D6N3A3)
T1 sequence (D6N3A3 20-126): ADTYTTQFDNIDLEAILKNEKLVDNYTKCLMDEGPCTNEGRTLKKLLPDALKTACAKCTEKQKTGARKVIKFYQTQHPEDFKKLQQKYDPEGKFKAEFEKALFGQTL
Procedure: (§1) Protein-ligand binding affinity was determined for the three recombinant proteins. Emission fluorescence spectra were recorded on a Jasco FP-6500 Series fluorescence spectrofluorometer. […] Fluorescence was measured using an exciting wavelength of 337 nm. Emission spectrum was recorded between 350 and 500 nm.

BtabCSP2 = target: T2, BtabCSP2 (Bemisia tabaci, UniProt H6UKS9)
T2 sequence (H6UKS9 22-131): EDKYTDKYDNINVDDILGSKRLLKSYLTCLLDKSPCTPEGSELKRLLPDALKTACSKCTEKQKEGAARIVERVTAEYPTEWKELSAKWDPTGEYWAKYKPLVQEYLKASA
Procedure: as §1

BtabCSP3 = target: T3, BtabCSP3 (Bemisia tabaci, UniProt A0A097GUB5)
T3 sequence (A0A097GUB5 21-138): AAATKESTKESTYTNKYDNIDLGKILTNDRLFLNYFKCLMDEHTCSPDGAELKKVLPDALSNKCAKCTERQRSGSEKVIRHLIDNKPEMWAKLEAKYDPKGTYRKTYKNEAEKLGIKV
Procedure: as §1

[1] = displacement of 1-NPN, read-out: IC50, BtabCSP1
[2] = u.d. = binding constant not calculated, IC50>100 μM, read-out: BtabCSP1 Ki (u.d.)
[3] = u.d. = binding constant not calculated, IC50>100 μM, read-out: BtabCSP2 Ki (u.d.)
[4] = u.d. = binding constant not calculated, IC50>100 μM, read-out: BtabCSP3 Ki (u.d.)
[5] = competitive binding vs 1-NPN, three replicates ± SD, read-out: BtabCSP1 Ki
[6] = BtabCSP1 Ki (u.d.), u.d. = binding constant not calculated, IC50>100 μM

| SMILES | Ki (BtabCSP1; [2]) | Ki (BtabCSP2; [3]) | Ki (BtabCSP3; [4]) | further results |
| --- | --- | --- | --- | --- |
| C=CC(C)(O)CC/C=C(\C)CCC=C(C)C (racemic) [(+/-)Nerolidol] | > 100 µM | > 100 µM | > 100 µM | IC50 (BtabCSP1; [1]): 14.6 to 95.1 µM |
| C=C(C)C1CC=C(C)[C@@H](O)C1 (single isomer, unassigned; (-)) [(-)-Carveol] | > 100 µM | > 100 µM | > 100 µM | – |
| CC12CCC(CC1)C(C)(C)O2 [1,8-Cineole] | > 100 µM | > 100 µM | > 100 µM | – |
| CCCCCCCO [1-Heptanol] | > 100 µM | > 100 µM | > 100 µM | – |
| CCCCCCO [1-Hexanol] | – | > 100 µM | > 100 µM | Ki (BtabCSP1; [5]): 46.8 ± 1.37 µM; IC50 (BtabCSP1; [1]): 14.6 to 95.1 µM |
| c1ccc(Nc2cccc3ccccc23)cc1 [1-NPN] | – | – | – | Kd (BtabCSP1; direct titration, Scatchard plot, read-out: binding constant of 1-NPN to CSP1): 11.7 µM; Kd (BtabCSP2; direct titration, Scatchard plot, read-out: binding constant of 1-NPN to CSP2): 20.8 µM; Kd (BtabCSP3; direct titration, Scatchard plot, read-out: binding constant of 1-NPN to CSP3): 15.3 µM |
| CC(=O)c1ccc(C)cc1C [2, 4′-Dimethylacetophenone] | – | – | – | Ki (BtabCSP1; [6]): > 100 µM; Ki (BtabCSP2): > 100 µM; Ki (BtabCSP3): > 100 µM |
| CCCCC(CC)CO (stereo not drawn) [2-Ethyl-hexanol] | > 100 µM | > 100 µM | > 100 µM | – |
| CCCCCC(C)=O [2-Heptanone] | – | > 100 µM | > 100 µM | Ki (BtabCSP1; [5]): 55.3 ± 4.21 µM; IC50 (BtabCSP1; [1]): 14.6 to 95.1 µM |
| CCCCCCCCCCCCCC(C)=O [2-Pentadecanone] | > 100 µM | > 100 µM | > 100 µM | – |
| CC1=CCC2C(C1)C2(C)C (stereo not drawn) [3-Carene] | > 100 µM | > 100 µM | > 100 µM | – |
| CCCC(O)CC (stereo not drawn) [3-Hexanol] | > 100 µM | > 100 µM | > 100 µM | – |
| CC(=O)CCC=C(C)C [6-Methyl-5-hepten-2-one] | – | – | – | IC50 (BtabCSP1): 14.6 to 95.1 µM; Ki (BtabCSP1; [6]): > 100 µM; Ki (BtabCSP2): > 100 µM; Ki (BtabCSP3): > 100 µM |
| CC1(C)[C@H]2CC[C@]1(C)C(=O)C2 [(1S)-(-)-Camphor] | – | – | – | Ki (BtabCSP1; [5]): 50.8 ± 3.08 µM |
| CCC/C=C/COC(=O)CCC [(E)-2-Hexenyl butyrate] | > 100 µM | > 100 µM | > 100 µM | – |
| CC/C=C\CCOC(C)=O [(Z)-3-Hexenyl acetate] | > 100 µM | > 100 µM | > 100 µM | – |
| CCCCCOC(C)=O [Amyl acetate] | > 100 µM | > 100 µM | > 100 µM | – |
| O=Cc1ccccc1 [Benzaldehyde] | – | – | – | Ki (BtabCSP1; [6]): > 100 µM; Ki (BtabCSP2): > 100 µM; Ki (BtabCSP3): > 100 µM |
| C=C1CC/C=C(\C)CC[C@@H]2[C@@H]1CC2(C)C [Caryopyllene] | > 100 µM | > 100 µM | > 100 µM | – |
| O=C(O)/C=C/c1ccccc1 [Cinnamic acid] | – | > 100 µM | > 100 µM | Ki (BtabCSP1; [5]): 75.5 ± 2.29 µM; IC50 (BtabCSP1; [1]): 14.6 to 95.1 µM |
| CCCCCCCCCC(=O)O [Decanoic acid] | – | – | – | IC50 (BtabCSP1): 14.6 to 95.1 µM; Ki (BtabCSP1; [6]): > 100 µM; Ki (BtabCSP2): > 100 µM; Ki (BtabCSP3): > 100 µM |
| CCCCCCCCCCCC=O [Dodecyl aldehyde] | > 100 µM | > 100 µM | > 100 µM | – |
| C=CC(=C)CC/C=C(\C)CCC=C(C)C [E-β-Farnesene] | > 100 µM | > 100 µM | > 100 µM | – |
| C=CCc1ccc(O)c(OC)c1 [Eugenol] | > 100 µM | > 100 µM | > 100 µM | – |
| CC(C)=CCC/C(C)=C/CO [Geraniol] | – | – | – | IC50 (BtabCSP1): 14.6 to 95.1 µM; Ki (BtabCSP1; BtabCSP1 Ki, competitive binding vs 1-NPN, three replicates ± SD): 39.6 ± 3.01 µM; Ki (BtabCSP2): > 100 µM; Ki (BtabCSP3): > 100 µM |

| SMILES | Ki (BtabCSP1; [2]) | Ki (BtabCSP2; [3]) | Ki (BtabCSP3; [4]) | further results |
| --- | --- | --- | --- | --- |
| CCCCCCC=O [Heptanal] | > 100 µM | > 100 µM | > 100 µM | – |
| CCCCCCOC(C)=O [Hexyl acetate] | > 100 µM | > 100 µM | > 100 µM | – |
| CCCCCCCCCCCC(=O)O [Lauric acid] | – | > 100 µM | > 100 µM | Ki (BtabCSP1; [5]): 35.2 ± 1.42 µM |
| C=CC(C)(O)CCC=C(C)C (stereo not drawn) [Linalool] | > 100 µM | > 100 µM | > 100 µM | IC50 (BtabCSP1; [1]): 14.6 to 95.1 µM |
| CCCCC/C=C\C/C=C\CCCCCCCC(=O)O [Linoleic acid] | – | > 100 µM | – | Ki (BtabCSP1; [5]): 5.78 ± 0.39 µM; IC50 (BtabCSP1; [1]): 6.7 ± 0.52 µM; IC50 (BtabCSP2; displacement of 1-NPN): > 100 µM; Ki (BtabCSP3; competitive binding vs 1-NPN, three replicates ± SD, read-out: BtabCSP3 Ki): 43.5 ± 2.86 µM; IC50 (BtabCSP3; displacement of 1-NPN): 48.5 ± 3.42 µM |
| COC(=O)c1ccccc1O [Methyl salicylate] | – | > 100 µM | > 100 µM | Ki (BtabCSP1; [5]): 60 ± 2.74 µM; IC50 (BtabCSP1; [1]): 14.6 to 95.1 µM |
| C=CC(=C)CCC=C(C)C [Myrcene] | > 100 µM | > 100 µM | > 100 µM | IC50 (BtabCSP1; [1]): 14.6 to 95.1 µM |
| CCCCCCCCC=O [Nonanal] | > 100 µM | > 100 µM | > 100 µM | – |
| C=CC(C)=CCC=C(C)C [Ocimene] | > 100 µM | > 100 µM | > 100 µM | – |
| CCCCCCCC=O [Octanal] | > 100 µM | > 100 µM | > 100 µM | – |
| CCCCCCCC(=O)O [Octanoic acid] | > 100 µM | > 100 µM | > 100 µM | IC50 (BtabCSP1; [1]): 14.6 to 95.1 µM |
| C=C(C)[C@H]1CC=C(C)CC1 [R(+)-Limonene] | – | > 100 µM | > 100 µM | Ki (BtabCSP1; [5]): 47.8 ± 1.56 µM |
| CC(C)=CCC/C(C)=C/CC/C(C)=C/CO [Trans,trans-Farnesol] | > 100 µM | > 100 µM | > 100 µM | – |
| CCC/C=C/CO [Trans-2-hexen-1-ol] | – | > 100 µM | > 100 µM | Ki (BtabCSP1; [5]): 46.1 ± 1.25 µM; IC50 (BtabCSP1; [1]): 14.6 to 95.1 µM |
| CCC/C=C/C=O [Trans-2-hexenal] | > 100 µM | > 100 µM | > 100 µM | – |
| CCCCC=O [Valeraldehyde] | > 100 µM | > 100 µM | > 100 µM | – |
| CC/C=C\CCO [Z3-Hexen-1-ol] | > 100 µM | > 100 µM | > 100 µM | – |
| Cc1cccc(C)c1 [m-Xylene] | – | > 100 µM | > 100 µM | Ki (BtabCSP1; [5]): 55.5 ± 3.14 µM; IC50 (BtabCSP1; [1]): 14.6 to 95.1 µM |
| CCCCCCC [n-Heptane] | > 100 µM | > 100 µM | > 100 µM | IC50 (BtabCSP1; [1]): 14.6 to 95.1 µM |
| CCCCCC=O [n-Hexaldehyde] | > 100 µM | > 100 µM | > 100 µM | – |
| CCCCCC [n-Hexane] | – | – | – | Ki (BtabCSP1; BtabCSP1 Ki (u.d.)): > 100 µM; Ki (BtabCSP2): > 100 µM; Ki (BtabCSP3): > 100 µM |
| CCCCCCCCCCCCCCC [n-Pentadecane] | > 100 µM | > 100 µM | > 100 µM | – |
| CCCCCCCCCCCCC [n-Tridecane] | > 100 µM | > 100 µM | > 100 µM | – |
| CCCCCCCCCCC [n-Undecane] | > 100 µM | > 100 µM | > 100 µM | – |
